Results published in US9512089B2, “Tetrazole-substituted arylamides as P2X3 and P2X2/3 antagonists” (Roche Palo Alto LLC, priority 2007, dated 2016).
pIC50: −log10 of the molar value.

Target: T1, P2X2/3 receptor (Homo sapiens, UniProt P56373+Q9UBL9)
T1 construct: expressed in transfected cells; host or cells: CHO-K1
T1 sequence (P56373 1-397): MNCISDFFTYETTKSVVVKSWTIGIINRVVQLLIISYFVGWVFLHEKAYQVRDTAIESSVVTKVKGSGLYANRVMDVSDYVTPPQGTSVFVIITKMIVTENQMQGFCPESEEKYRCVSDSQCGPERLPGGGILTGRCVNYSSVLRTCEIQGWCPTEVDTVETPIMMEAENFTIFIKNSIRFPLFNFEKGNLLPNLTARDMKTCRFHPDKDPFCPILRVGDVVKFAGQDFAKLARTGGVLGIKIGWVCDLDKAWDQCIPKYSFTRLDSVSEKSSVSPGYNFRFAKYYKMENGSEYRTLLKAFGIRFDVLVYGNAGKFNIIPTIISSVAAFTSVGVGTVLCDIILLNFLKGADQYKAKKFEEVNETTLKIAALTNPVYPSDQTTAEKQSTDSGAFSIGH
T1 sequence (Q9UBL9 1-471): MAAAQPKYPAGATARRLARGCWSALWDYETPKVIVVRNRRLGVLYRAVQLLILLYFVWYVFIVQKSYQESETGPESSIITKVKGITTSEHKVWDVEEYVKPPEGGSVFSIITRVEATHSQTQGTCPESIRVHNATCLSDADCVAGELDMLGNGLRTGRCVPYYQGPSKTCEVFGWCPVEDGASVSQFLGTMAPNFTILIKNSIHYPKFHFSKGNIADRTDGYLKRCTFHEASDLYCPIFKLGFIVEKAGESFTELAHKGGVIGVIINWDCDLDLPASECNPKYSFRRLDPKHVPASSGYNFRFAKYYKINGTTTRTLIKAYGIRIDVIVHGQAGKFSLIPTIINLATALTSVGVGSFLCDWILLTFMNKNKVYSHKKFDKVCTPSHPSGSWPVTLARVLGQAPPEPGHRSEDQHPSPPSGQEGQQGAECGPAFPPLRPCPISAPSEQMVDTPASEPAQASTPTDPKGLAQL
Test: P2X2/3 FLIPR (Fluorometric Imaging Plate Reader) assay
Assay type: cell-based
Conditions: CHO-K1 cells transfected with human P2X2/3; agonist α,β-meATP 5 μM; Fluo-3 fluorescence
Protocol: CHO-K1 cells were transfected with cloned rat P2X3 or human P2X2/3 receptor subunits and passaged in flasks. 18-24 hours before the FLIPR experiment, cells were released from their flasks, centrifuged, and resuspended in nutrient medium at 2.5×10^5 cells/ml. The cells were aliquoted into black-walled 96-well plates at a density of 50,000 cells/well and incubated overnight in 5% CO2 at 37° C. On the day of the experiment, cells were washed in FLIPR buffer (calcium- and magnesium-free Hank's balanced salt solution, 10 mM HEPES, 2 mM CaCl2, 2.5 mM probenecid; FB). Each well received 100 μl FB and 100 μl of the fluorescent dye Fluo-3 AM [2 μM final conc.]. […]
Test compounds (dissolved in DMSO at 10 mM and serially diluted with FB) or vehicle were added to each well (25 μl of a 4× solution) and allowed to equilibrate for 20 minutes at room temperature. The plates were then placed in the FLIPR and a baseline fluorescence measurement (excitation at 488 nm and emission at 510-570 nm) was obtained for 10 seconds before a 100 μl/well agonist or vehicle addition. […] Fluorescence was measured for an additional 2 minutes at 1 second intervals after agonist addition. A final addition of ionomycin (5 μM, final concentration) was made to each well of the FLIPR test plate to establish cell viability and maximum fluorescence of dye-bound cytosolic calcium. […]

- pIC50: ~8.10
Compound: CCc1nnnn1-c1cc(C(=O)NC(C)c2cnccn2)cc(-c2ccc(C)cc2)c1 (stereo not shown) [5-(5-ethyl-tetrazol-1-yl)-4′-methyl-biphenyl-3-carboxylic acid (1-pyrazin-2-yl-ethyl)-amide]
